Where two headings read alike, the source gives them in different places.
Legend:
SCC9 cells = assay: MTT cell viability (cytotoxicity) assay, SCC9; assay type: cell-based, human
Description: (§1) SCC cells (SCC9 and SCC4), derived from human tongue OSCC, were obtained by (ATCC® CRL-1629 and CRL-1624) and maintained in DMEM/F12 1:1 medium (Dulbecco’s modified Eagle’s medium and Ham’s F12 medium, Gibco (Thermo Fisher, Waltham, MA, USA), supplemented with 10% (v/v) FBS (Fetal Bovine Serum; Invitrogen, Thermo Fisher, Waltham, MA, USA) and 400 ng/mL hydrocortisone (Sigma-AldrichCo., St. Louis, MO, USA). Primary normal gingival fibroblast human (PCS201 018TM) and other tumor cells B16-F10 (CRL-6475), Hep G2 (HB-8065), and HT-29 (HTB-38) were also obtained at ATCC and maintained in DMEM supplemented with 10% (v/v) FCS. Cells were cultured in a humidified environment containing 5% CO2 at 37 °C. For all experiments, the compounds were solubilized in DMSO (Sigma-Aldrich) for a final concentration of 100 mM. From this dilution, other concentrations were made to carry out the cell viability assay. Carboplatin (Fauldcarbo®; Libbs Farmacêutica, São Paulo, SP, Brazil) was used as a control antitumor compound.
(§2) The viability of cancer cells and primary fibroblasts was tested using the MTT assay as described in MACHADO et al., 2021 [49]. Briefly, cancer cells (5 × 10^3 cells/well) were plated in duplicate in a 96-well plate, as indicated. DMSO was diluted in culture medium at the same concentrations and was used as a negative control, representing 100% cell viability. After 48 h of treatment, cells were incubated for 3.5 h with 5 mg/mL of MTT reagent (3,4,5-dimethiazol-2,5-diphenyltetrazoliumbromide) (Sigma-Aldrich Co., St. Louis, MO, USA) diluted in culture medium. Subsequently, the formazan crystals were dissolved by MTT solvent (50% Methanol and 50% DMSO), and the absorbance was read at 560 nm using the EPOCH microplate spectrophotometer (BioTekInstruments, Winooski, VT, USA).
(§3) IC50 values for the MTT assay were obtained by non-linear regression using GraphPad Prism 5.0 software (GraphPad, San Diego, CA, USA) from at least three independent experiments. Data are presented as means, ± standard deviation (SD). A log dose response (inhibitor) vs. response curve using the least square method was used to determine the IC50 and SD of the data. The selectivity index was calculated as: S.I. = IC50 of the compound in fibroblasts/IC50 of the same compound in tumor cells.

[1] = system: Primary Gingival Fibroblast; assay: MTT cell viability assay, normal fibroblasts; assay type: cell-based, human; conditions: 48 h treatment
Description: as §1, §2, §3

SCC4 cells = assay: MTT cell viability assay, SCC4; assay type: cell-based, human
Description: as §1, §2, §3

[2] = system: Oral Tumor Cells (SCC9, SCC4); assay: MTT cell viability assay, average of OSCC lines SCC9 and SCC4; assay type: cell-based, human
Description: as §1, §2
IC50 values for the MTT assay were obtained by non-linear regression using GraphPad Prism 5.0 software (GraphPad, San Diego, CA, USA) from at least three independent experiments. […] The selectivity index was calculated as: S.I. = IC50 of the compound in fibroblasts/IC50 of the same compound in tumor cells.

mouse erythrocytes = system: mouse erythrocytes; design: method as in PMID 16163826; conditions: cited from earlier work
[3] = Homo sapiens, SCC-9, 48 h treatment, MTT, read-out: SCC9 IC50
[4] = Homo sapiens, SCC-9, 48 h treatment, MTT, read-out: SCC9 IC50 (µg/mL)
[5] = Homo sapiens, Fibroblast, read-out: Primary Gingival Fibroblast IC50
[6] = Homo sapiens, Fibroblast, read-out: Primary Gingival Fibroblast IC50 (µg/mL)
[7] = Homo sapiens, SCC-9, 48 h treatment, MTT, N.D. = not determined, not toxic to SCC cells, read-out: SCC9 IC50 (class N.D.)
[8] = Homo sapiens, SCC-4, 48 h treatment, calculated as in Table 1, no cytotoxic effect in SCC4, read-out: SCC4 IC50 (class N.D.)

SMILES | melting point | IC50 (SCC9 cells; [3]) | IC50 (SCC9 cells; [4]) | IC50 [1, 5] | IC50 [1, 6] | IC50 (SCC9 cells; [7]) | also measured
COc1cc(C(=O)O)cc(OC)c1OC [3,4,5-Trimethoxybenzoic acid] |  |  |  |  |  |  | cytotoxic activity against SCC9 cells (in words) (SCC9 cells): inactive; IC50 (SCC9 cells; Homo sapiens, SCC-9, 48 h, read-out: SCC9 IC50 (class N.D.)): > 1000 µM
COc1cc(C(=O)OCCC(C)C)cc(OC)c1OC [Compound 6, Isopentyl 3,4,5–trimethoxybenzoate] |  | 160 µM | 45.2 µg/mL | 570 µM | 161 µg/mL |  | 
COc1cc(C(=O)NCC(C)C)cc(OC)c1OC [Compound 14, N-Isobutyl-3,4,5–trimethoxybenzamide] | 118 to 119 °C |  |  |  |  | > 1000 µM | 
COc1cc(C(=O)NC2CCCCC2)cc(OC)c1OC [Compound 15, N-Cyclohexyl-3,4,5–trimethoxybenzamide] | 179 to 180 °C |  |  |  |  | > 1000 µM | 
N.N.O=C([O-])C1(C(=O)[O-])CCC1.[Pt+2] [Carboplatin, reference compound] |  |  |  |  |  |  | SCC9 IC50 (SCC9 cells; 48 h treatment, MTT): 77.37 µg/mL; IC50 (SCC9 cells; 48 h treatment, MTT, read-out: SCC9 IC50): 208 µM; Primary Gingival Fibroblast IC50 [1]: 190.19 µg/mL; IC50 ([1]; read-out: Primary Gingival Fibroblast IC50): 512 µM; IC50 (SCC4 cells; 48 h treatment, read-out: SCC4 IC50): 175 µM; IC50 [2]: 192 µM
CCCCOC(=O)c1cc(OC)c(OC)c(OC)c1 [Compound 5, Butyl 3,4,5–trimethoxybenzoate] |  | 204 µM | 54.8 µg/mL | 510 µM | 137 µg/mL |  | 
CCCCCCCCCCOC(=O)c1cc(OC)c(OC)c(OC)c1 [Compound 8, Decyl 3,4,5–trimethoxybenzoate] | 49 to 50 °C | 955 µM | 337 µg/mL |  |  |  | 
COc1cc(/C=C/C(=O)N2CCC=CC2=O)cc(OC)c1OC [piplartine] |  |  |  |  |  |  | hemolytic activity (mouse erythrocytes): did not reveal hemolytic activity
COc1cc(C(=O)OC(C)C)cc(OC)c1OC [Compound 4, Isopropyl 3,4,5–trimethoxybenzoate] |  | 373 µM | 94.9 µg/mL | 1800 µM | 456 µg/mL |  | IC50 (SCC4 cells; Homo sapiens, SCC-4, 48 h treatment, read-out: SCC4 IC50): 454 µM; IC50 ([2]; Homo sapiens): 376 µM
COC(=O)c1cc(OC)c(OC)c(OC)c1 [Compound 1, Methyl 3,4,5–trimethoxybenzoate] |  | 858 µM | 194 µg/mL |  |  |  | 
CCCCCOC(=O)c1cc(OC)c(OC)c(OC)c1 [Compound 7, Pentyl 3,4,5–trimethoxybenzoate] |  | 258 µM | 72.7 µg/mL | 418 µM | 118 µg/mL |  | 

The next lines start with results.

melting point | SMILES | IC50 (SCC9 cells; [3]) | IC50 (SCC9 cells; [4]) | IC50 [1, 5] | IC50 [1, 6] | IC50 (SCC9 cells; [7]) | also measured
84 to 85 °C | COc1cc(C(=O)OCc2ccc3ccccc3c2)cc(OC)c1OC [Compound 11, 2-Methylnaphthalene 3,4,5–trimethoxybenzoate] | 310 µM | 109 µg/mL | 3410 µM | 1200 µg/mL |  | 
131 to 132 °C | COc1cc(C(=O)NCc2ccc(F)cc2)cc(OC)c1OC [Compound 18, N-(4-Fluorobenzyl)-3,4,5–trimethoxybenzamide] |  |  |  |  | > 1000 µM | cytotoxic activity against SCC9 cells (in words) (SCC9 cells): inactive
227 to 229 °C | COc1cc(C(=O)NCc2ccc(O)cc2)cc(OC)c1OC [Compound 16, N-4-Hydroxybenzyl-3,4,5–trimethoxybenzamide] |  |  |  |  | > 1000 µM | 
53 to 54 °C | CCOC(=O)c1cc(OC)c(OC)c(OC)c1 [Compound 2, Ethyl 3,4,5–trimethoxybenzoate] |  |  |  |  | > 1000 µM | cytotoxic activity against SCC9 cells (in words) (SCC9 cells): no cytotoxic activity
115 to 116 °C | CCCCNC(=O)c1cc(OC)c(OC)c(OC)c1 [Compound 13, N-Butyl-3,4,5–trimethoxybenzamide] | 469 µM | 125 µg/mL | 2360 µM | 631 µg/mL |  | IC50 (SCC4 cells; [8]): > 1000 µM
34 to 35 °C | CCCOC(=O)c1cc(OC)c(OC)c(OC)c1 [Compound 3, Propyl 3,4,5–trimethoxybenzoate] | 299 µM | 76 µg/mL | 1260 µM | 319 µg/mL |  | IC50 (SCC4 cells; [8]): > 1000 µM
104 to 105 °C | COc1cc(C(=O)OCc2ccc(Br)cc2)cc(OC)c1OC [Compound 10, 4-Bromo-benzyl 3,4,5–trimethoxybenzoate] |  |  |  |  | > 1000 µM | cytotoxic activity against SCC9 cells (in words) (SCC9 cells): no cytotoxic activity
138 to 139 °C | COc1cc(C(=O)NCc2ccccc2)cc(OC)c1OC [Compound 17, N-Benzyl-3,4,5–trimethoxybenzamide] |  |  |  |  | > 1000 µM | 
57 to 58 °C | COc1cc(C(=O)OC(c2ccccc2)c2ccccc2)cc(OC)c1OC [Compound 12, Diphenyl 3,4,5–trimethoxybenzoate] | 830 µM | 314 µg/mL |  |  |  | 
157 to 158 °C | COc1cc(C(=O)NCc2ccc(Cl)cc2)cc(OC)c1OC [Compound 19, N-4-Chlorobenzyl-3,4,5–trimethoxybenzamide] |  |  |  |  | > 1000 µM | 

From publication PMC9964404, “Molecular Modeling and In Vitro Evaluation of Piplartine Analogs against Oral Squamous Cell Carcinoma” (Molecules, 2023)
